Consider 1 molecule from US12446574B2, “Adjuvants for agrochemical formulations” (SYNGENTA CROP PROTECTION AG, priority 2016, dated 2025).

This data set is described as follows: Storage stability of aqueous adjuvant formulations: clear isotropic single-phase solution after 24 hours at the temperature of interest. In kind it is physicochemical. The arrangement: key: Pass: Samples which were found to be clear isotropic solutions after 24 hours were classified as a pass; Fail: all other results were classed as a fail. An excerpt: For the purposes of the present invention we define a stable formulation of adjuvant in water as one where the mixture forms a homogeneous or single phase liquid. The liquid may be a micellar solution however it will appear isotropic to the naked eye. […] This stability allows the design of products with shelf lives potentially running to several years. […]

`COCc1cnc(C2=NC(C)(C(C)C)C(=O)N2)c(C(=O)O)c1` (stereo not drawn) [Imazamox, imazamox]: the Result result runs as follows: (20 °C, Plurafac=0, water=40.5, imazamox=4.5, Tween 20=50, PG=5 % w/w) “Pass”; (20 °C, Plurafac=0, water=45, imazamox=5, Tween 20=50 % w/w) “Pass”; (20 °C, Plurafac=0, water=64.8, imazamox=7.2, Tween 20=20, PG=8 % w/w) “Pass”; (20 °C, Plurafac=0, water=72, imazamox=8, Tween 20=20 % w/w) “Pass”; (20 °C, Plurafac=0, water=72.9, imazamox=8.1, Tween 20=10, PG=9 % w/w) “Pass”; (20 °C, Plurafac=0, water=81, imazamox=9, Tween 20=10 % w/w) “Pass”. Besides, the Result entry is on record as “Pass” (50 °C, Plurafac=0, water=40.5, imazamox=4.5, Tween 20=50, PG=5 % w/w); “Pass” (50 °C, Plurafac=0, water=45, imazamox=5, Tween 20=50 % w/w); “Pass” (50 °C, Plurafac=0, water=64.8, imazamox=7.2, Tween 20=20, PG=8 % w/w); “Pass” (50 °C, Plurafac=0, water=72, imazamox=8, Tween 20=20 % w/w); “Pass” (50 °C, Plurafac=0, water=72.9, imazamox=8.1, Tween 20=10, PG=9 % w/w); “Pass” (50 °C, Plurafac=0, water=81, imazamox=9, Tween 20=10 % w/w). Besides, the Result result is, setting by setting: (-5 °C, Plurafac=0, water=40.5, imazamox=4.5, Tween 20=50, PG=5 % w/w) “Fail”; (-5 °C, Plurafac=0, water=45, imazamox=5, Tween 20=50 % w/w) “Fail”; (-5 °C, Plurafac=0, water=64.8, imazamox=7.2, Tween 20=20, PG=8 % w/w) “Pass”; (-5 °C, Plurafac=0, water=72, imazamox=8, Tween 20=20 % w/w) “Pass”; (-5 °C, Plurafac=0, water=72.9, imazamox=8.1, Tween 20=10, PG=9 % w/w) “Pass”; (-5 °C, Plurafac=0, water=81, imazamox=9, Tween 20=10 % w/w) “Pass”. For the same molecule, the Result result reads like this: (-10 °C, Plurafac=0, water=40.5, imazamox=4.5, Tween 20=50, PG=5 % w/w) “Fail”; (-10 °C, Plurafac=0, water=45, imazamox=5, Tween 20=50 % w/w) “Fail”; (-10 °C, Plurafac=0, water=64.8, imazamox=7.2, Tween 20=20, PG=8 % w/w) “Pass”; (-10 °C, Plurafac=0, water=72, imazamox=8, Tween 20=20 % w/w) “Pass”; (-10 °C, Plurafac=0, water=72.9, imazamox=8.1, Tween 20=10, PG=9 % w/w) “Pass”; (-10 °C, Plurafac=0, water=81, imazamox=9, Tween 20=10 % w/w) “Pass”.
